Results reported in patent publication US20160324154A1, “Herbicidal mixtures comprising imazethapyr, imazamox and fomesafen, sulfentrazone or bentazone” (BASF AGROCHEMICAL PRODUCTS B.V., priority 2014, published 2016).

Legend:
Format in all cases: in vivo
[1] = test system: Phalaris canariensis; experiment: Post emergence treatment, herbicidal activity against PHACA; design: scale not given here
Description: (§1) Synergism can be described as an interaction where the combined effect of two or more compounds is greater than the sum of the individual effects of each of the compounds. […] However, the weed control afforded by the compounds, mixtures or compositions is not limited to these species.The analysis of synergism or antagonism between the mixtures or compositions was determined using Colby's equation. Analogously, the Colby's equation can be used to determine synergism of 3-way and higher mixtures: [table] Post Emergence Treatment by the Mixture of (Imazamox+Imazethapyr)+Bentazon Post Emergence Treatment by the Mixture of (Imazamox+Imazethapyr)+Fomesafen Post Emergence Treatment by the Mixture of (Imazamox+Imazethapyr)+Sulfentrazone

[2] = test system: Leptochloa fusca; experiment: Post emergence treatment, herbicidal activity against LEFFA
Description: as §1

[3] = test system: Ambrosia artemisiifolia; experiment: Post emergence treatment, herbicidal activity against AMBEL
Description: as §1, with “(Imazamox+Imazethapyr)+Fomesafen” for “(Imazamox+Imazethapyr)+Fomesafen Post Emergence Treatment by the Mixture of (Imazamox+Imazethapyr)+Sulfentrazone”

[4] = test system: Geranium dissectum; experiment: Post emergence treatment, herbicidal activity against GERDI; design: scale not given here
Description: as §1

[5] = test system: Abutilon theophrasti; experiment: Post emergence treatment, herbicidal activity against ABUTH; details: Example 1, post emergence; g ai/ha: imazethapyr 15, imazamox 15, bentazon 25, mixture (15 + 15) + 25
Description: as §1, with “(Imazamox+Imazethapyr)+Bentazon” for “(Imazamox+Imazethapyr)+Bentazon Post Emergence Treatment by the Mixture of (Imazamox+Imazethapyr)+Fomesafen Post Emergence Treatment by the Mixture of (Imazamox+Imazethapyr)+Sulfentrazone”

[6] = test system: Echinochloa crus-galli; experiment: Post emergence treatment, herbicidal activity against ECHCG; details: Example 1, post emergence; g ai/ha: imazethapyr 15, imazamox 15, bentazon 50, mixture (15 + 15) + 50
Description: as §1, with “(Imazamox+Imazethapyr)+Bentazon” for “(Imazamox+Imazethapyr)+Bentazon Post Emergence Treatment by the Mixture of (Imazamox+Imazethapyr)+Fomesafen Post Emergence Treatment by the Mixture of (Imazamox+Imazethapyr)+Sulfentrazone”

[7] = test system: Setaria faberi; experiment: Post emergence treatment, herbicidal activity against SETFA
Description: as §1, with “of” for “of (Imazamox+Imazethapyr)+Fomesafen Post Emergence Treatment by the Mixture of”

[8] = test system: Digitaria sanguinalis; experiment: Post emergence treatment, herbicidal activity against DIGSA; details: Example 1, post emergence; g ai/ha: imazethapyr 15, imazamox 15, bentazon 50, mixture (15 + 15) + 50
Description: as §1, with “(Imazamox+Imazethapyr)+Bentazon” for “(Imazamox+Imazethapyr)+Bentazon Post Emergence Treatment by the Mixture of (Imazamox+Imazethapyr)+Fomesafen Post Emergence Treatment by the Mixture of (Imazamox+Imazethapyr)+Sulfentrazone”

[9] = test system: Sesbania exaltata; experiment: Post emergence treatment, herbicidal activity against SEBEX; design: scale not given here
Description: as §1

[10] = test system: Conyza canadensis; experiment: Post emergence treatment, herbicidal activity against ERICA
Description: as §1, with “(Imazamox+Imazethapyr)+Fomesafen” for “(Imazamox+Imazethapyr)+Fomesafen Post Emergence Treatment by the Mixture of (Imazamox+Imazethapyr)+Sulfentrazone”

[11] = test system: Convolvulus arvensis; experiment: Post emergence treatment, herbicidal activity against CONAR; details: Example 2, post emergence; g ai/ha: imazethapyr 15, imazamox 15, fomesafen 6, mixture (15 + 15) + 6
Description: as §1, with “of” for “of (Imazamox+Imazethapyr)+Bentazon Post Emergence Treatment by the Mixture of”, “(Imazamox+Imazethapyr)+Fomesafen” for “(Imazamox+Imazethapyr)+Fomesafen Post Emergence Treatment by the Mixture of (Imazamox+Imazethapyr)+Sulfentrazone”

[12] = test system: Polygonum persicaria; experiment: Post emergence treatment, herbicidal activity against POLPE
Description: as §1, with “of” for “of (Imazamox+Imazethapyr)+Bentazon Post Emergence Treatment by the Mixture of”

[13] = test system: Panicum miliaceum; experiment: Post emergence treatment, herbicidal activity against PANMI; details: Example 3, post emergence; g ai/ha: imazethapyr 15, imazamox 15, sulfentrazone 6, mixture (15 + 15) + 6
Description: as §1, with “of” for “of (Imazamox+Imazethapyr)+Bentazon Post Emergence Treatment by the Mixture of (Imazamox+Imazethapyr)+Fomesafen Post Emergence Treatment by the Mixture of”

[14] = test system: Brachiaria decumbens; experiment: Post emergence treatment, herbicidal activity against BRADC; details: Example 3, post emergence; g ai/ha: imazethapyr 15, imazamox 15, sulfentrazone 10, mixture (15 + 15) + 10
Description: as §1, with “of” for “of (Imazamox+Imazethapyr)+Bentazon Post Emergence Treatment by the Mixture of (Imazamox+Imazethapyr)+Fomesafen Post Emergence Treatment by the Mixture of”

[15] = Example 1, post emergence, g ai/ha: imazethapyr 15, imazamox 15, bentazon 25, mixture (15 + 15) + 25
[16] = Example 2, post emergence, g ai/ha: imazethapyr 15, imazamox 15, fomesafen 6, mixture (15 + 15) + 6
[17] = Example 3, post emergence, g ai/ha: imazethapyr 15, imazamox 15, sulfentrazone 6, mixture (15 + 15) + 6
[18] = Example 2, post emergence, g ai/ha: imazethapyr 15, imazamox 15, fomesafen 10, mixture (15 + 15) + 10
[19] = Example 1, post emergence, g ai/ha: imazethapyr 15, imazamox 15, bentazon 50, mixture (15 + 15) + 50
[20] = Example 3, post emergence, g ai/ha: imazethapyr 15, imazamox 15, sulfentrazone 10, mixture (15 + 15) + 10

Structure (SMILES)	Herbicidal activity against PHACA Found [1, 15]	Herbicidal activity against PHACA Found [1, 16]	Herbicidal activity against PHACA Found [1, 17]	Herbicidal activity against LEFFA Found [2, 15]	Herbicidal activity against LEFFA Found [2, 16]	Herbicidal activity against LEFFA Found [2, 17]	Herbicidal activity against AMBEL Found [3, 15]	Herbicidal activity against AMBEL Found [3, 18]	Herbicidal activity against GERDI Found [4, 15]	Herbicidal activity against GERDI Found [4, 16]	Herbicidal activity against GERDI Found [4, 18]	Herbicidal activity against GERDI Found [4, 17]	Herbicidal activity against ABUTH Found [5]	Herbicidal activity against ECHCG Found [6]	Herbicidal activity against SETFA Found [7, 19]	Herbicidal activity against SETFA Found [7, 17]	Herbicidal activity against DIGSA Found [8]	Herbicidal activity against SEBEX Found [9, 19]	Herbicidal activity against SEBEX Found [9, 18]	Herbicidal activity against SEBEX Found [9, 20]	also measured
COCc1cnc(C2=NC(C)(C(C)C)C(=O)N2)c(C(=O)O)c1 (racemic) [Imazamox, 2-[(RS)-4-isopropyl-4-methyl-5-oxo-2-imidazolin-2-yl]-5-methoxymethylnicotinic acid]	65	65	65	85	85	85	98	70	80	80	95	80	95	98	98	98	98	45	45	45	Herbicidal activity against ERICA Found [10, 19]: 60; Herbicidal activity against ERICA Found [10, 18]: 60; Herbicidal activity against CONAR Found [11]: 75; Herbicidal activity against POLPE Found [12, 16]: 95; Herbicidal activity against POLPE Found [12, 20]: 95; Herbicidal activity against PANMI Found [13]: 98; Herbicidal activity against BRADC Found [14]: 35
CCc1cnc(C2=NC(C)(C(C)C)C(=O)N2)c(C(=O)O)c1 (racemic) [Imazethapyr, 5-ethyl-2-[(RS)-4-isopropyl-4-methyl-5-oxo-2-imidazolin-2-yl]nicotinic acid]	30	30	30	45	45	45	98	65	65	65	65	65	50	80	90	95	80	0	0	0	Herbicidal activity against ERICA Found [10, 19]: 55; Herbicidal activity against ERICA Found [10, 18]: 55; Herbicidal activity against CONAR Found [11]: 65; Herbicidal activity against POLPE Found [12, 16]: 0; Herbicidal activity against POLPE Found [12, 20]: 75; Herbicidal activity against PANMI Found [13]: 70; Herbicidal activity against BRADC Found [14]: 10
CC(C)N1C(=O)c2ccccc2NS1(=O)=O [Bentazon, 3-isopropyl-1H-2,1,3-benzothiadiazin-4(3H)-one 2,2-dioxide]	0	–	–	0	–	–	0	–	0	–	–	–	0	35	10	–	40	40	–	–	Herbicidal activity against ERICA Found [10, 19]: 40
CS(=O)(=O)NC(=O)c1cc(Oc2ccc(C(F)(F)F)cc2Cl)ccc1[N+](=O)[O-] [Fomesafen, 5-(2-chloro-α,α,α-trifluoro-p-tolyloxy)-N-mesyl-2-nitrobenzamide]	–	0	–	–	0	–	–	65	–	0	70	–	–	–	–	–	–	–	80	–	Herbicidal activity against ERICA Found [10, 18]: 30; Herbicidal activity against CONAR Found [11]: 0; Herbicidal activity against POLPE Found [12, 16]: 20
Cc1nn(-c2cc(NS(C)(=O)=O)c(Cl)cc2Cl)c(=O)n1C(F)F [Sulfentrazone, 2′,4′-dichloro-5′-(4-difluoromethyl-4,5-dihydro-3-methyl-5-oxo-1H-1,2,4-triazol-1-yl)methanesulfonanilide]	–	–	0	–	–	0	–	–	–	–	–	0	–	–	–	0	–	–	–	80	Herbicidal activity against POLPE Found [12, 20]: 80; Herbicidal activity against PANMI Found [13]: 0; Herbicidal activity against BRADC Found [14]: 30
